Source: patent publication US20080171783A1, “COMPOSITIONS AND METHODS FOR TREATING HYPERPROLIFERATIVE DISEASE” (Migenix Inc., priority 2006, published 2008)

Biological target: T1, Calf polymerase alpha (Bos taurus, UniProt A0AAA9TD94)
T1 construct: purchased Replizyme Ltd (Heslington, York, UK)
T1 sequence (A0AAA9TD94 1-1441): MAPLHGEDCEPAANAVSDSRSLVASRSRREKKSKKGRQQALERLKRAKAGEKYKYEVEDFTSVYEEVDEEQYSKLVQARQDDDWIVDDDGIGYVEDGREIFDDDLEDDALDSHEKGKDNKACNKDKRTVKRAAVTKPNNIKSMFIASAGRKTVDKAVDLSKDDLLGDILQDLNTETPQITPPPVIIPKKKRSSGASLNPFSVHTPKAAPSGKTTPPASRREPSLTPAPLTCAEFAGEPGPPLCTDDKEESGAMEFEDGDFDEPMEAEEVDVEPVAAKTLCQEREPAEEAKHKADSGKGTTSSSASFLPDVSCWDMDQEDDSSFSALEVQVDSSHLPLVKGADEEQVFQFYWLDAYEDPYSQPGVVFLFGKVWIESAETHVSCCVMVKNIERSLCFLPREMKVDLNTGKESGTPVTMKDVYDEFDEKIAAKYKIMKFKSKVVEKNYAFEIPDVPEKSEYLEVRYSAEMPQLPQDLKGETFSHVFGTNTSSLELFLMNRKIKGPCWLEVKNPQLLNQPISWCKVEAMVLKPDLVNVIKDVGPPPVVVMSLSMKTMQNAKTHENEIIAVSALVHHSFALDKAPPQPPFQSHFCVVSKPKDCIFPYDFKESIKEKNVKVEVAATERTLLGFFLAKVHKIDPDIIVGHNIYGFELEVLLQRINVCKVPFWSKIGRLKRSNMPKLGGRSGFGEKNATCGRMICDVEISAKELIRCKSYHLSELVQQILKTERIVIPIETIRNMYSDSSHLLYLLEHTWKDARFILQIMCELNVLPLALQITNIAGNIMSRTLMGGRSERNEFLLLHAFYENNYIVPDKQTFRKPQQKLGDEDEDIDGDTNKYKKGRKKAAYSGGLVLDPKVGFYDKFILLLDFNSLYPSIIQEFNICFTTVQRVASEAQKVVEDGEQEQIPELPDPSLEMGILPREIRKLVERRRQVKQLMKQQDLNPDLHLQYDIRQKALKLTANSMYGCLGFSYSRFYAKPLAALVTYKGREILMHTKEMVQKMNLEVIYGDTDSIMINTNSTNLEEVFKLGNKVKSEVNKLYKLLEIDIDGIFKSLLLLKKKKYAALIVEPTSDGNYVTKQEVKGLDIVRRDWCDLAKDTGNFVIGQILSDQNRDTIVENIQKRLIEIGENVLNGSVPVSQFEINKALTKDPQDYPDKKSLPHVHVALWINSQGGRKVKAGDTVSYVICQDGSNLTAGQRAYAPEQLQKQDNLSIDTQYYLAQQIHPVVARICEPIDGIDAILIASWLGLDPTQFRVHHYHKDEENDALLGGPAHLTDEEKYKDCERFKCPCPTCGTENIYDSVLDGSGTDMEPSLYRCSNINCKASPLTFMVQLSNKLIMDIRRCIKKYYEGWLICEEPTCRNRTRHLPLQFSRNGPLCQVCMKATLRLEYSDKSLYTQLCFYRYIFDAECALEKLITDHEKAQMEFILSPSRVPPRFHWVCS
Assay: Calf polymerase alpha inhibition (Replizyme kit)
Type: biochemical
Conditions: for % Inhibition / inhibition at 10 µM: at 10 μM, single point screening
Protocol: Calf polymerase alpha and human polymerase alpha investigations were performed with a kit available from Replizyme Ltd (Heslington, York, UK).

SMILES	% Inhibition [%]	also measured
Cc1ccc(NC(=O)[C@H](CCCCN)NC(=O)Nc2ccc(OCc3ccccc3F)cc2)cc1 [Compound 248, (S)-6-AMINO-2-{3-[4-(2-FLUORO-BENZYLOXY)-PHENYL]-UREIDO}-HEXANOIC ACID P-TOLYLAMIDE]	61	–
Cc1ccc(NC(=O)[C@H](CCCCN)NC(=O)OCC2c3ccccc3-c3ccccc32)cc1 [Compound 20, (S)-(5-AMINO-1-P-TOLYLCARBAMOYL-PENTYL)-CARBAMIC ACID 9H-FLUOREN-9-YLMETHYL ESTER]	–	inhibition at 10 µM: 18%
Cc1ccc(NC(=O)[C@H](CCCCN(C)C)NC(=O)OCC2c3ccccc3-c3ccccc32)cc1 [Compound 124, (S)-(5-DIMETHYLAMINO-1-P-TOLYLCARBAMOYL-PENTYL)-CARBAMIC ACID 9H-FLUOREN-9-YLMETHYL ESTER]	79	–
Cc1cc2cc(NC(=O)[C@H](CCCCN)NC(=O)Nc3ccc(-c4ccccc4)cc3)ccc2[nH]1 [Compound 94, (S)-6-AMINO-2-(3-BIPHENYL-4-YL-UREIDO)-HEXANOIC ACID (2-METHYL-1H-INDOL-5-YL)-AMIDE]	–	inhibition at 10 µM: 93%
Cc1ccc(NC(=O)[C@H](CCCC[N+](C)(C)C)NC(=O)OCC2c3ccccc3-c3ccccc32)cc1 [Compound 110]	62.5	–
Cc1ccc(NC(=O)[C@H](CCCCN)NC(=O)NC2c3ccccc3-c3ccccc32)cc1 [Compound 126, (S)-6-AMINO-2-[3-(9H-FLUOREN-9-YL)-UREIDO]-HEXANOIC ACID P-TOLYLAMIDE]	98	–
Cc1ccc(NC(=O)CC2CN(C(=O)[C@H](C)N)CCN2C(=O)OCC2c3ccccc3-c3ccccc32)cc1 (stereo partly drawn) [Compound 184, 4-((S)-2-AMINO-PROPIONYL)-2-(P-TOLYLCARBAMOYL-METHYL)-PIPERAZINE-1-CARBOXYLIC ACID 9H-FLUOREN-9-YLMETHYL ESTER]	38	–
CC(=O)NCCCC[C@H](NC(=O)OCC1c2ccccc2-c2ccccc21)C(=O)Nc1ccc(C)cc1 [Compound 181, (S)-(5-ACETYLAMINO-1-P-TOLYLCARBAMOYL-PENTYL)-CARBAMIC ACID 9H-FLUOREN-9-YLMETHYL ESTER]	18.5	–
Cc1ccc(NC(=O)[C@H](Cc2ccc(CN)cc2)NC(=O)Nc2ccc(OCc3ccccc3)cc2)cc1 [Compound 146, (S)-3-(4-AMINOMETHYL-PHENYL)-2-[3-(4-BENZYLOXY-PHENYL)-UREIDO]-N-P-TOLYL-PROPIONAMIDE]	102	–
Cc1ccc(NC(=O)[C@H](CCCCN)NC(=O)C2c3ccccc3-c3ccccc32)cc1 [Compound 52, (S)-9H-FLUORENE-9-CARBOXYLIC ACID (5-AMINO-1-P-TOLYLCARBAMOYL-PENTYL)-AMIDE]	13	–
Cc1ccc(NC(=O)[C@H](CCCCN)NC(=O)Nc2ccc(NCc3ccc(F)cc3)cc2)cc1 [Compound 225, (S)-6-AMINO-2-{3-[4-(4-FLUORO-BENZYLAMINO)-PHENYL]-UREIDO}-HEXANOIC ACID P-TOLYLAMIDE]	62	–
CNCC(=O)NCCC[C@H](NC(=O)OCC1c2ccccc2-c2ccccc21)C(=O)Nc1ccc(C)cc1 [Compound 223, (S)-[4-(2-METHYLAMINO-ACETYLAMINO)-1-P-TOLYLCARBAMOYL-BUTYL]-CARBAMIC ACID 9H-FLUOREN-9-YLMETHYL ESTER]	22	–
Cc1ccc(NC(=O)[C@H](CN)NC(=O)OCC2c3ccccc3-c3ccccc32)cc1 [Compound 103, (S)-(2-AMINO-1-P-TOLYLCARBAMOYL-ETHYL)-CARBAMIC ACID 9H-FLUOREN-9-YLMETHYL ESTER]	72	–
NCCCCN(CC(=O)Nc1cccc2[nH]ccc12)C(=O)Nc1ccc(OCc2ccccc2)cc1 [Compound 281, 2-[1-(4-AMINO-BUTYL)-3-(4-BENZYLOXY-PHENYL)-UREIDO]-N-(1H-INDOL-4-YL)-ACETAMIDE]	–	inhibition at 10 µM: 30.5%; IC50 (dose response): 9.2 µM
NCCCCCCNC(=O)[C@@H](NC(=O)OCC1c2ccccc2-c2ccccc21)c1ccccc1 [Compound 313, (S)-[(6-AMINO-HEXYLCARBAMOYL)-PHENYL-METHYL]-CARBAMIC ACID 9H-FLUOREN-9-YLMETHYL ESTER]	–	inhibition at 10 µM: 43%
Cc1ccc(NC(=O)[C@H](CCCCNC(=O)CN)NC(=O)OCC2c3ccccc3-c3ccccc32)cc1 [Compound 176, (S)-[5-(2-AMINO-ACETYLAMINO)-1-P-TOLYLCARBAMOYL-PENTYL]-CARBAMIC ACID 9H-FLUOREN-9-YLMETHYL ESTER]	68	–
Cc1cc2cc(NC(=O)[C@H](CCNC(=O)CN)NC(=O)Nc3ccc4c(c3)Cc3ccccc3-4)ccc2[nH]1 [Compound 240, (S)-4-(2-AMINO-ACETYLAMINO)-2-[3-(9H-FLUOREN-2-YL)-UREIDO]-N-(2-METHYL-1H-INDOL-5-YL)-BUTYRAMIDE]	–	inhibition at 10 µM: 63%
NCCCC[C@H](NC(=O)OCC1c2ccccc2-c2ccccc21)C(=O)NC1CCCCC1 [Compound 22, (S)-(5-AMINO-1-CYCLOHEXYLCARBAMOYL-PENTYL)-CARBAMIC ACID 9H-FLUOREN-9-YLMETHYL ESTER]	–	inhibition at 10 µM: 14%
Cc1ccc(NC(=O)[C@H](CCCCN)NC(=O)Nc2ccc(OCc3ccncc3)cc2)cc1 [Compound 279, (S)-6-AMINO-2-{3-[4-(PYRIDIN-4-YLMETHOXY)-PHENYL]-UREIDO}-HEXANOIC ACID P-TOLYLAMIDE]	15	–
O=C(CC1CNCCN1C(=O)Nc1ccc(OCc2ccccc2)cc1)Nc1ccc(C2CCCCC2)cc1 (stereo not shown) [Compound 163, 2-[(4-CYCLOHEXYL-PHENYLCARBAMOYL)-METHYL]-PIPERAZINE-1-CARBOXYLIC ACID (4-BENZYLOXY-PHENYL)-AMIDE]	–	inhibition at 10 µM: 102%
NCCCC[C@H](NC(=O)OCC1c2ccccc2-c2ccccc21)C(=O)N(Cc1ccccc1)C1CCCCC1 [Compound 33, (S)-[5-AMINO-1-(BENZYL-CYCLOHEXYL-CARBAMOYL)-PENTYL]-CARBAMIC ACID 9H-FLUOREN-9-YLMETHYL ESTER]	–	inhibition at 10 µM: 95%
Cc1ccc(NC(=O)[C@H](CCCCN)NC(=O)Nc2ccc(OCc3cccc(F)c3)cc2)cc1 [Compound 249, (S)-6-AMINO-2-{3-[4-(3-FLUORO-BENZYLOXY)-PHENYL]-UREIDO}-HEXANOIC ACID P-TOLYLAMIDE]	67	–
Cc1ccc(NC(=O)[C@H](CNC(=O)CN)NC(=O)Nc2ccc(OCc3ccccc3)cc2)cc1 [Compound 268, (S)-3-(2-AMINO-ACETYLAMINO)-2-[3-(4-BENZYLOXY-PHENYL)-UREIDO]-N-P-TOLYL-PROPIONAMIDE]	62.7	–
CCNCC(=O)N1CCN(C(=O)OCC2c3ccccc3-c3ccccc32)C(CC(=O)Nc2ccc(C)cc2)C1 (stereo not shown) [Compound 187, 4-(2-ETHYLAMINO-ACETYL)-2-(P-TOLYLCARBAMOYL-METHYL)-PIPERAZINE-1-CARBOXYLIC ACID 9H-FLUOREN-9-YLMETHYL ESTER]	33.5	–
Cc1ccc(NC(=O)CN(CCCCN)C(=O)Nc2ccc(OCc3ccccc3)cc2)cc1 [Compound 278, 2-[1-(4-AMINO-BUTYL)-3-(4-BENZYLOXY-PHENYL)-UREIDO]-N-P-TOLYL-ACETAMIDE]	101	–
Cc1ccc(NC(=O)[C@H](CCCCN)NC(=O)Nc2ccc(OCc3cccnc3)cc2)cc1 [Compound 261, (S)-6-AMINO-2-{3-[4-(PYRIDIN-3-YLMETHOXY)-PHENYL]-UREIDO}-HEXANOIC ACID P-TOLYLAMIDE]	55	–
Cc1ccc(NC(=O)[C@H](CCCCN)NC(=O)Nc2ccc(Cc3ccccc3)cc2)cc1 [Compound 74, (S)-6-AMINO-2-[3-(4-BENZYL-PHENYL)-UREIDO]-HEXANOIC ACID P-TOLYLAMIDE]	92	–
